In ChEMBL document CHEMBL3804755, “Discovery of new [1,4]dioxino[2,3-f]quinazoline-based inhibitors of EGFR including the T790M/L858R mutant” (Bioorg Med Chem, 2016):

Legend:
[1] = biological target: Epidermal growth factor receptor (Homo sapiens, UniProt P00533); assay: Inhibition of wild type EGFR (unknown origin) autophosphorylation preincubated for 30 mins followed by ATP addition measured after 1 hr by kinase-glo luminescence assay
[2] = biological target: Epidermal growth factor receptor (Homo sapiens, UniProt P00533, L858R/T790M); type: protein assay
Chain of Epidermal growth factor receptor (Homo sapiens, UniProt P00533, L858R/T790M) (P00533 25-1210 T790M/L858R limits assumed): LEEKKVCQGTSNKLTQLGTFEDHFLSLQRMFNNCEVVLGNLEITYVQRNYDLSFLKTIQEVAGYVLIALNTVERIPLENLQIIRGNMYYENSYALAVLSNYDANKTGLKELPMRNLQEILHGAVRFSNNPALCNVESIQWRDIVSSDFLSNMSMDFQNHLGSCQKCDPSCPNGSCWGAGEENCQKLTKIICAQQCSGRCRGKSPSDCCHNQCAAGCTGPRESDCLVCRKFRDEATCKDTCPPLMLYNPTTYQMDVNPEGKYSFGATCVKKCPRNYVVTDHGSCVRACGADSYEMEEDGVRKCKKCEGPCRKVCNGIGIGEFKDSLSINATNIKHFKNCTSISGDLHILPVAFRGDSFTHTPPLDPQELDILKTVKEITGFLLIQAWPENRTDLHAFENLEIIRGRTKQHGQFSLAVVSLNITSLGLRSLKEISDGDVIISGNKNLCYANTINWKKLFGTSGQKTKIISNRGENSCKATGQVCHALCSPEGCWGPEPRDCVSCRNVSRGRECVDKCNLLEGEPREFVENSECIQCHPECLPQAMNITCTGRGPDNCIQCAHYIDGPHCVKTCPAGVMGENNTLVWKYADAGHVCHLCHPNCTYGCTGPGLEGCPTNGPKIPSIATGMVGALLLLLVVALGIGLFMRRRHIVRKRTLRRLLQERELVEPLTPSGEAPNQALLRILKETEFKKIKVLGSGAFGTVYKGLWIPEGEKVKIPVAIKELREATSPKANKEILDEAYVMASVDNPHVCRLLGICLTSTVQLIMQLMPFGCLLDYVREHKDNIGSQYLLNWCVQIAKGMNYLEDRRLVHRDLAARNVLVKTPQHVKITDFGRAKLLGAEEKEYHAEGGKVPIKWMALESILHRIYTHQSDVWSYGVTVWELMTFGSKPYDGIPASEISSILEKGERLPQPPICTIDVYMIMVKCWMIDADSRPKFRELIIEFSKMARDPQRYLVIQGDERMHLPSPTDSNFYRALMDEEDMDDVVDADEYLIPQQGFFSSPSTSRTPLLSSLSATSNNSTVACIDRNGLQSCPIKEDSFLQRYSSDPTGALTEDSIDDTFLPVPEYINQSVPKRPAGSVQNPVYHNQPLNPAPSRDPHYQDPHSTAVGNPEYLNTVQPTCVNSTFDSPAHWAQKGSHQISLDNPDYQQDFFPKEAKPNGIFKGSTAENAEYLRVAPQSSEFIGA

NCI-H358 = assay: Antiproliferative activity against human NCI-H358 cells assessed as reduction in cell viability after 48 hrs by cck8 assay; type: functional, cell-based; conditions: NCI-H358, 48 h
A549 = assay: Antiproliferative activity against human A549 cells assessed as reduction in cell viability after 48 hrs by cck8 assay; type: functional, cell-based; conditions: A549, 48 h
[3] = Cytotoxicity against HEK293T assessed as reduction in cell viability by MTT assay; type: cell-based, HEK-293T; conditions: human, HEK293T cells

Chain of Epidermal growth factor receptor (Homo sapiens, UniProt P00533) (P00533 whole entry): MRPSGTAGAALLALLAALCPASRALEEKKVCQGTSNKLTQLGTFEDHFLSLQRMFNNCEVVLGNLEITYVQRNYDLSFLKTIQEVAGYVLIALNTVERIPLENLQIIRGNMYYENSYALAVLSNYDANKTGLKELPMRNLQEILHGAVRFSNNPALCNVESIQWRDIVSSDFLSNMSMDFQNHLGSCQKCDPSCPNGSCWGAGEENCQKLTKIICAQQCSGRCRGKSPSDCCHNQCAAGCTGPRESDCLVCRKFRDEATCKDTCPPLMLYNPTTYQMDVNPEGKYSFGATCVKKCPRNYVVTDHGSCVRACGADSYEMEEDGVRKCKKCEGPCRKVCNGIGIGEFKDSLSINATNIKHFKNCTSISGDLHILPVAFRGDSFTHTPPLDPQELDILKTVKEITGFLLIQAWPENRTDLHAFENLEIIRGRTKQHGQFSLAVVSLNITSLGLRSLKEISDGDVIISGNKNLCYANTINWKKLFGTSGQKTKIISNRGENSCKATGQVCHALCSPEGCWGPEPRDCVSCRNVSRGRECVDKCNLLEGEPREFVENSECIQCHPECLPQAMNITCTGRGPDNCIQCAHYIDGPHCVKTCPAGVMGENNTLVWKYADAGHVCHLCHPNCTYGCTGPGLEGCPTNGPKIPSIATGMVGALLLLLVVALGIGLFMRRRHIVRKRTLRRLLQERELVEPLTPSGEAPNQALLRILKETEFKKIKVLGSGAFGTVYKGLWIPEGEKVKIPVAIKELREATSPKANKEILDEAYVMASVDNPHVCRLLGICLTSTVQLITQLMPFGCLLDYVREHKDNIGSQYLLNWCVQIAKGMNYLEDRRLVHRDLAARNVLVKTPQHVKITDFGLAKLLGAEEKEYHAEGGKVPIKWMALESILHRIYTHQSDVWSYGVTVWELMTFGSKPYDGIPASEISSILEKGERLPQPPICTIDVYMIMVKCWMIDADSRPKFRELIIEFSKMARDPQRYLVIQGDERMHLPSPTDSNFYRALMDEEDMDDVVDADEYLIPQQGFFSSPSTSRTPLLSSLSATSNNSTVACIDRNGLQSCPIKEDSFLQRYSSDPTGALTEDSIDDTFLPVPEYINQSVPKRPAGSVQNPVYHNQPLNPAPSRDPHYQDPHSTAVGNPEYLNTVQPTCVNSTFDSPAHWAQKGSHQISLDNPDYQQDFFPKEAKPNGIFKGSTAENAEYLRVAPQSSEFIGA

Row | IC50 [1] | IC50 [2] | IC50 (NCI-H358) | IC50 (A549) | Structure (SMILES) | CC50 [3]
1 | 6.7 nM | 33.8 nM | 17300 nM | 11800 nM | CCOc1cc2ncnc(Nc3ccc(C)c(Cl)c3)c2c2c1OCCO2 | 
2 | 83.9 nM |  |  |  | Fc1cccc(Nc2ncnc3cc(OCCCN4CCOCC4)c4c(c23)OCCO4)c1 | 
3 | 9.2 nM | 21.5 nM | 8890 nM | 10500 nM | C#Cc1cccc(Nc2ncnc3cc(OCC)c4c(c23)OCCO4)c1 | 28200 nM
4 | 184 nM | > 1000 nM |  |  | Cc1ccc(Nc2ncnc3cc(OC(C)C)c4c(c23)OCCO4)cc1[N+](=O)[O-] | 
5 | 103 nM | 1300 nM |  |  | CC(C)Oc1cc2ncnc(Nc3ccc(Cl)c([N+](=O)[O-])c3)c2c2c1OCCO2 | 
6 | 25.9 nM |  |  |  | Fc1ccc(Nc2ncnc3cc(OCCCN4CCOCC4)c4c(c23)OCCO4)cc1Cl | 
7 | 10.9 nM | > 1000 nM |  |  | C#Cc1cccc(Nc2ncnc3cc(OC)c4c(c23)OCCO4)c1 | 11700 nM
8 | 9.7 nM | 71 nM |  |  | CCOc1cc2ncnc(Nc3cccc([N+](=O)[O-])c3)c2c2c1OCCO2 | 42000 nM
9 | 363 nM | > 1000 nM |  |  | CCOC(C)Oc1cc2ncnc(Nc3ccc(C)c([N+](=O)[O-])c3)c2c2c1OCCO2 (stereo not given) | 
10 | 388 nM | > 1000 nM |  |  | COCCOc1cc2ncnc(Nc3ccc(F)c(C#N)c3)c2c2c1OCCO2 | 
11 | 29.1 nM | 46.3 nM | 6920 nM | 11600 nM | CC(C)Oc1cc2ncnc(Nc3ccc(F)c(Cl)c3)c2c2c1OCCO2 | 
12 | 74.6 nM | > 1000 nM |  |  | COCCOc1cc2ncnc(Nc3ccc(C)c([N+](=O)[O-])c3)c2c2c1OCCO2 | 
13 | 27.3 nM | 121 nM |  |  | C#Cc1cccc(Nc2ncnc3cc(OCC4CCCO4)c4c(c23)OCCO4)c1 (stereo not given) | 40200 nM
14 | 82.5 nM | > 1000 nM |  |  | CC(C)Oc1cc2ncnc(Nc3ccc(F)c([N+](=O)[O-])c3)c2c2c1OCCO2 | 
15 | > 1000 nM | > 1000 nM |  |  | CCOC(C)Oc1cc2ncnc(Nc3ccc(OC)c([N+](=O)[O-])c3)c2c2c1OCCO2 (stereo not given) | 
16 | 21 nM | 8.1 nM | 7350 nM | 9930 nM | C#Cc1cccc(Nc2ncnc3cc(OCCOC)c4c(c23)OCCO4)c1 | 22100 nM
17 | > 1000 nM | > 1000 nM |  |  | COc1ccc(Nc2ncnc3cc(OC(C)C)c4c(c23)OCCO4)cc1[N+](=O)[O-] | 
18 | > 1000 nM | > 1000 nM |  |  | COCCOc1cc2ncnc(Nc3ccc(OC)c([N+](=O)[O-])c3)c2c2c1OCCO2 | 
19 | 23.7 nM | 31.4 nM | 4540 nM | 6080 nM | C#Cc1cccc(Nc2ncnc3cc(OC(C)C)c4c(c23)OCCO4)c1 | 22100 nM
20 | 474 nM | 76.1 nM |  |  | C#Cc1cccc(Nc2ncnc3cc(OC(C)COC)c4c(c23)OCCO4)c1 (stereo not given) | 
21 | 97.2 nM |  |  |  | FC(F)(F)c1cccc(Nc2ncnc3cc(OCCCN4CCOCC4)c4c(c23)OCCO4)c1 | 

Row | IC50 [1] | IC50 [2] | IC50 (NCI-H358) | IC50 (A549) | Structure (SMILES) | CC50 [3]
22 | > 1000 nM | > 1000 nM |  |  | CCOC(C)Oc1cc2ncnc(Nc3ccc(C)c(C#N)c3)c2c2c1OCCO2 (stereo not given) | 
23 | 352 nM | > 1000 nM |  |  | CCOC(C)Oc1cc2ncnc(Nc3ccc(F)c(C#N)c3)c2c2c1OCCO2 (stereo not given) | 
24 | 21.9 nM |  |  |  | Clc1cccc(Nc2ncnc3cc(OCCCN4CCOCC4)c4c(c23)OCCO4)c1 | 
25 | 4.4 nM | 70 nM |  |  | CCOc1cc2ncnc(Nc3cccc(OC)c3)c2c2c1OCCO2 | 25300 nM
26 | 20.5 nM | 151 nM |  |  | Fc1ccc(Nc2ncnc3cc(OC4CCOC4)c4c(c23)OCCO4)cc1Cl (stereo not given) | 
27 | 3.6 nM | 124 nM |  |  | CCOc1cc2ncnc(Nc3ccc(C)cc3)c2c2c1OCCO2 | 27400 nM
28 | 314 nM | > 1000 nM |  |  | CC(C)Oc1cc2ncnc(Nc3ccc(F)c(C#N)c3)c2c2c1OCCO2 | 
29 | 200 nM | > 1000 nM |  |  | COCCOc1cc2ncnc(Nc3ccc(F)cc3)c2c2c1OCCO2 | 25900 nM
30 | 160 nM | 109 nM |  |  | COCCOc1cc2ncnc(Nc3cccc(OC)c3)c2c2c1OCCO2 | 20800 nM
31 | 13.1 nM | 10.5 nM | 5930 nM | 13900 nM | COCCOc1cc2ncnc(Nc3ccc(F)c(Cl)c3)c2c2c1OCCO2 | 
32 | 18.5 nM |  |  |  | Brc1cccc(Nc2ncnc3cc(OCCCN4CCOCC4)c4c(c23)OCCO4)c1 | 
33 | 57.8 nM | > 1000 nM |  |  | C#Cc1cccc(Nc2ncnc3cc(OC4CCOCC4)c4c(c23)OCCO4)c1 | 
34 | 16.7 nM | 324 nM |  |  | C#Cc1cccc(Nc2ncnc3cc(OC4CCOC4)c4c(c23)OCCO4)c1 (stereo not given) | 
35 | 232 nM | 271 nM |  |  | CCOC(C)Oc1cc2ncnc(Nc3ccc(F)c([N+](=O)[O-])c3)c2c2c1OCCO2 (stereo not given) | 
36 | 36.2 nM | > 1000 nM |  |  | COCCOc1cc2ncnc(Nc3ccc(Cl)c([N+](=O)[O-])c3)c2c2c1OCCO2 | 
37 | 24.1 nM | > 1000 nM |  |  | Fc1ccc(Nc2ncnc3cc(OCC4CCCO4)c4c(c23)OCCO4)cc1Cl (stereo not given) | 
38 | 58.8 nM | > 1000 nM |  |  | Fc1ccc(Nc2ncnc3cc(OC4CCOCC4)c4c(c23)OCCO4)cc1Cl | 
39 | 2 nM | 6.9 nM | 22700 nM | 16100 nM | CCOc1cc2ncnc(Nc3ccc(F)c(Cl)c3)c2c2c1OCCO2 | 37000 nM
40 | 22.5 nM | 1000 nM |  |  | COc1cc2ncnc(Nc3ccc(F)c(Cl)c3)c2c2c1OCCO2 | 
41 | 416 nM | > 1000 nM |  |  | Cc1ccc(Nc2ncnc3cc(OC(C)C)c4c(c23)OCCO4)cc1C#N | 
42 |  |  | 3910 nM | 7350 nM | C#Cc1cccc(Nc2ncnc3cc(OCCOC)c(OCCOC)cc23)c1 [ERLOTINIB] | 28200 nM
